Assays:
canine PBMCs = assay: IL-1β secretion by canine PBMCs (ELISA); type: cell-based; conditions: two days in culture, R848 1 μg/mL, 22:0 LYSO PC 82.5 μM
Description: (§1) Isolation of PBMCs from Whole Blood. PBMCs were isolated from whole blood using density gradient centrifugation with Ficoll-Paque PLUS (Cytivia). Whole blood was diluted 1:1 with PBS, layered on top of Ficoll-Paque PLUS and centrifuged at 1000×g for 30 minutes at room temperature. PBMCs were collected, washed twice in PBS, and incubated with Ack lysis buffer (Lonza) to remove any remaining red blood cells.
(§2) Cell Culture and Stimulation. Immediately following isolation, PBMCs were plated in RPMI medium containing 10% FBS, 50 units/mL penicillin, […] streptomycin, 2 mM L-glutamine, 1 mM sodium pyruvate, and […] beta-mercaptoethanol (R10 media). […]
(§3) Endpoint Analyses. […] Half of the media volume in the wells was collected for cytokine quantification by Enzyme-Linked Immunosorbent Assay (ELISA) or Lumit™ Bioluminescent assay, while the remaining media and cells were used to quantify cell viability by assessing metabolic activity.
(§4) Quantification of Cytokine Secretion. IL-1β secretion from human PBMCs was assessed using one of the following kits: ELISA MAX Deluxe Set Human IL-1β kit (Biolegend), Invitrogen Human IL-1β kit, or the Lumit™ Human IL-1β Immunoassay (Promega). IFNγ secretion from human PBMCs was assessed using the ELISA MAX Deluxe Set Human IFNγ (Biolegend) and TNFα secretion from human PBMCs was assessed using the Human TNFα Uncoated ELISA kit (Invitrogen). […]

human PBMCs [1] = assay: IFNγ and TNFα secretion by human PBMCs (ELISA); type: cell-based; conditions: two days post-hyperactivation
Description: Cell Culture and Stimulation. Immediately following isolation, PBMCs were plated in RPMI medium containing 10% FBS, 50 units/mL penicillin, […] streptomycin, 2 mM L-glutamine, 1 mM sodium pyruvate, and […] beta-mercaptoethanol (R10 media). Cells were plated at 1×10^5 (canine cells) or 1×10^6 (human cells) per well in 96-well flat bottom tissue culture plates. Lyophilized Vaccigrade R848 (Invivogen) was reconstituted and diluted according to manufacturer's recommendations and added to cells at a final concentration of 1 μg/mL. Immediately following, 22:0 LYSO PC was added to cells at a final concentration of 82.5 μM. […]
as §3, §4

human PBMCs [2] = assay: IL-1β secretion by human PBMCs (ELISA or Lumit); type: cell-based; conditions: two days in culture
Description: as §1, §2, §3, §4

[3] = test system: human leukemia monocytic cell line; conditions: cited from earlier work

**Q.** Which IL-1β secretion (canine PBMCs) does the source give for `Nc1nc2c(ncn2[C@@H]2O[C@@H]3COP(=O)(O)O[C@H]4[C@@H](O)[C@H](n5cnc6c(N)ncnc65)O[C@@H]4COP(=O)(O)O[C@@H]2[C@@H]3O)c(=O)[nH]1` [2′3′cGAMP, 2′3′cyclic GMP-AMP, reference compound] here?
**A.** The IL-1β secretion was “neither GM-CSF nor 2′3′cGAMP induced significant IL-1β secretion”.

**Q.** What about the “IFNγ secretion, fold change per donor relative to R848 alone” value (human PBMCs [1]) of the same molecule?
**A.** Its value is “neither GM-CSF nor 2′3′cGAMP elicited a substantial fold change in IFNγ secretion over R848 alone”.

**Q.** Which IL-1β secretion (canine PBMCs) does the source give for “GM-CSF: human GM-CSF (Peprotech), innate agonist” here?
**A.** Its IL-1β secretion is “neither GM-CSF nor 2′3′cGAMP induced significant IL-1β secretion”.

**Q.** And the IL-1β secretion (human PBMCs [2])?
**A.** Its IL-1β secretion is “did not induce levels of IL-1β secretion from human PBMCs significantly above background levels”.

**Q.** What about the “IFNγ secretion, fold change per donor relative to R848 alone” value (human PBMCs [1]) of the same molecule?
**A.** Its value is “neither GM-CSF nor 2′3′cGAMP elicited a substantial fold change in IFNγ secretion over R848 alone”.

B1: cGASΔN: constitutively-active truncated human cGAS, C-terminal domain (SEQ ID NO:1) (protein, listed as Homo sapiens)
chain: PGASKLRAVLEKLKLSRDDISTAAGMVKGVVDHLLLRLKCDSAFRGVGLLNTGSYYEHVKISAPNEFDVMFKLEVPRIQLEEYSNTRAYYFVKFKRNPKENPLSQFLEGEILSASKMLSKFRKIIKEEINDIKDTDVIMKRKRGGSPAVTLLISEKISVDITLALESKSSWPASTQEGLRIQNWLSAKVRKQLRLKPFYLVPKHAKEGNGFQEETWRLSFSHIEKEILNNHGKSKTCCENKEEKCCRKDCLKLMKYLLEQLKERFKDKKHLDKFSSYHVKTAFFHVCTQNPQDSQWDRKDLGLCFDNCVTYFLQCLRTEKLENYFIPEFNLFSSNLIDKRSKEFLTKQIEYERNNEFPVFDEF
**Q.** With B1 as the molecule, how does the “expression of interferon and interferon-stimulated genes” value [3] read?
**A.** Its value is “higher levels of expression of interferon and interferon-stimulated genes”.

Source: patent publication US20250255815A1, “NUCLEIC ACIDS ENCODING A CONSTITUTIVELY-ACTIVE CYCLIC GMP-AMP SYNTHASE AND IMMUNOGENIC DELIVERY VEHICLES FOR SAME” (Corner Therapeutics, Inc., priority 2022, published 2025)
